# Reference: patent US8450359B2, “Polymer-supported photosensitizers for the generation of singlet oxygen” (The Queen's University of Belfast, priority 2006, dated 2013)
# Values joined by “and” are separate entries in the source; they are usually repeats but may differ in a detail not shown here. Equal values may be shown once. Read-outs that look alike come from different tables or passages of the source.
# Key:
# [1] = test system: Staphylococcus epidermidis; conditions: for time to activity on illumination: intense light; for time to dark activity: daylight / laboratory light series; for time to activity in the dark: intense light series
# Method: (§1) Studies were performed on the photosensitising activity of porphyrin solutions against Staphylococcus epidermidis, Pseudomonas aeruginosa and Proteus mirabilis as these organisms have been isolated from culture-positive cases of infectious endophthalmitis. Studies were performed by adding a porphyrin solution to a culture of the test organism, exposing this mixture to daylight or to a more intense light source comprising 4×250 W halogen bulbs, and then taking a 1 mL aliquot at certain times to determine the viable count.
# (§2) 10 mcg/mL solutions of the three porphyrins were investigated. Initially the solutions were made up at the desired concentration and then double filter sterilised.
# (§3) Inocula of approximately 1×10^5 cfu/mL were utilised throughout the microbiological studies of porphyrin solutions. Activity was examined both in normal daylight conditions and using a more intense light source comprising 4×250 W halogen bulbs, cooling the temperature to around 32° C.
# (§4) Unfiltered and double filter sterilised 10 mcg/mL solutions were used to examine the effect of double filtration on activity.
# Pseudomonas aeruginosa = conditions: for dark activity: intense light series, dark control; for time to activity in light: intense light
# Method: as §1, §2, §3, §4
# [2] = in solution; cited from earlier work
# Proteus mirabilis = conditions: for reduction in growth / viable count: 24 hour study, after 24 hours; for reduction in viable count: more intense light
# Method: as §1, §2, §3, §4
# [3] = Transient absorbance (triplet lifetime) measurements; assay type: physicochemical
# Method: For the transient absorption and singlet oxygen studies, the second harmonic output from a Q-switched Nd:YAG laser was used as the excitation source and the sample was mounted at […] to the excitation beam. A pulse energy of 1 mJ was used for the measurements to avoid burning the sample. For transient absorption measurements, light from a xenon arc lamp (Applied Photophysics Ltd., 150 W) traveling at 90° to the excitation beam was directed through the sample and into a monochromator (Applied Photophysics Ltd., 1200 gr/mm grating.) fitted with an IP28 photomultiplier detector connected to a sampling oscilloscope (Tektronix TDS 3032). A 532 nm holographic notch filter (Kaiser Optical Systems Inc.) was mounted in front of the monoochromator entrance slit to reduce the effect of laser scatter on the signal. Processing of the data was carried out using SigmaPlot for Windows (Version 8.0).
# Transient absorbance difference (ΔA) measurements were carried out under oxygen-bubbled conditions and after degassing by nitrogen-bubbling for 20 minutes. […] However, N2 bubbling was used in the present studies as freeze-pump-thaw was inappropriate for the polymer samples.
# [4] = D2O, single exponential decay following the rapid component
# From the text: The ^1O2 detection system was a liquid-nitrogen-cooled Indium Gallium Arsenide (InGaAs) detector (Judson Technologies Inc, Montgomeryville, Pa., type J22D-M204-R01M-60-1.7) with a 1 mm^2 active area. The detector output was amplified using a Judson PA9 pre-amplifier and collected using a Tektronix TDS 3032 oscilloscope. To obtain acceptable signal-to-noise ratios 512 decays were summed for each reading. To minimise the effect of any inhomogeneity in the sample, readings from 8 different points were averaged, The singlet oxygen emission at 1270 nm was separated from the 1064 nm fundamental laser emission and other spurious emissions by use of a 1200 nm long pass filter (LP1200) and a 1292 nm band pass filter (BPO-1292-80), both supplied by Spectrogon UK Ltd.
# Using this approach, the polymers prepared were pre-wetted in buffer prepared with D2O and dipped in porphyrin solutions also prepared from D2O.
# [5] = one hour study, filtered solution
# [6] = one hour study, unfiltered solution
# [7] = one hour study, daylight / laboratory light, unfiltered solution
# [8] = one hour study, double filter sterilised solution
# [9] = one hour study, unfiltered 10 mcg/mL solution
SMILES,"time to activity on illumination [1, 5] [min]","time to activity on illumination [1, 6] [min]",reduction in growth / viable count (Proteus mirabilis; daylight),reduction in viable count (Proteus mirabilis; by 5 hours),τ1/μs ([3]; N2 bubbled),τ1/μs ([3]; O2 bubbled) [μs],"time to dark activity [1, 5]","time to activity (no growth) in light [1, 7] [min]","time to activity in the dark [1, 5] [min]","time to activity in the dark [1, 6] [min]",dark activity (Pseudomonas aeruginosa; one hour study),time to activity in light (Pseudomonas aeruginosa; [8]) [min],time to activity in light (Pseudomonas aeruginosa; [9]) [min],other results
"Cl.Cl.O=S(=O)(O)c1ccc(-c2c3nc(c(-c4ccc(S(=O)(=O)O)cc4)c4ccc([nH]4)c(-c4ccc(S(=O)(=O)O)cc4)c4nc(c(-c5ccc(S(=O)(=O)O)cc5)c5ccc2[nH]5)C=C4)C=C3)cc1 [TPPS, tetra(4-sulfonatophenyl)-porphine dihydrochloride]",≤ 50,≤ 40,no reduction in viable count,did not show any photosensitising effect,227.5 ± 6.1 μs,0.760 ± 0.0023,–,–,–,–,–,–,–,"time to successful photoinactivation, complete kill ([1]; 24 hour study, daylight): 24 h; reduction in the viable count (Pseudomonas aeruginosa; more intense source, by 5 hours illumination): one log cycle reduction; φ(1O2) [2]: 0.6717"
"C[N+](C)(C)c1ccc(-c2c3nc(c(-c4ccc([N+](C)(C)C)cc4)c4ccc([nH]4)c(-c4ccc([N+](C)(C)C)cc4)c4nc(c(-c5ccc([N+](C)(C)C)cc5)c5ccc2[nH]5)C=C4)C=C3)cc1.[Cl-].[Cl-].[Cl-].[Cl-] [TMAP, tetra(4N,N,N-trimethyl-anilinium)porphine tetrachloride]",≤ 10,≤ 10,–,–,–,–,not active in the dark,≤ 10,≤ 10,≤ 10,some limited dark activity,≤ 30,≤ 30,"time to dark activity (no growth in dark control) ([1]; one hour study, daylight series, unfiltered solution, dark control): ≤ 10 min; reduction of growth (Pseudomonas aeruginosa; 24 hour study, daylight, at 24 hours): 1 log cycle; activity (Pseudomonas aeruginosa; one hour study, daylight): no activity; reduction in viable count (Proteus mirabilis; in 3 hours): three log cycle reduction; activity (Proteus mirabilis; one hour study, daylight): no activity"
"C[n+]1ccc(-c2c3nc(c(-c4cc[n+](C)cc4)c4ccc([nH]4)c(-c4cc[n+](C)cc4)c4nc(c(-c5cc[n+](C)cc5)c5ccc2[nH]5)C=C4)C=C3)cc1.Cc1ccc(S(=O)(=O)[O-])cc1.Cc1ccc(S(=O)(=O)[O-])cc1.Cc1ccc(S(=O)(=O)[O-])cc1.Cc1ccc(S(=O)(=O)[O-])cc1 [TMPyP, tetra(4N-methylpyridyl)porphine tetratosylate salt]",≤ 10,≤ 10,1 log cycle,three log cycle reduction,161 μs and 161.0 ± 4.51 μs,0.436 ± 0.00062,≤ 30 min,≤ 10,20,10,not active in the dark,≤ 40,≤ 40,"time to activity in light ([1]; one hour study, daylight / laboratory light, filtered solution): ≤ 10 min; 1O2 emission decay lifetime [4]: 62 μs; photosensitising activity (Pseudomonas aeruginosa; 24 hour study, daylight, 10 mcg/mL solution, inoculum ca. 1×10^5 cfu/mL): no photosensitising activity; triplet lifetime, solution phase ([3]; under O2): 436 ns"
